In PMC10111420, “Optimization of Host Cell-Compatible, Antimicrobial Peptides Effective against Biofilms and Clinical Isolates of Drug-Resistant Bacteria” (ACS Infectious Diseases, 2023):
Values after ≈ are worked out from the molar mass of the structure shown. Where a SMILES comes first, the peptide text is derived from it. [ ]: non-standard residue; d: D form.

Legend:
[1] = test system: MRSA SAP400, a USA400 strain; assay: microbe, parasite or virus in culture; details: USA400
Procedure: (§1) Subcultures, prepared by inoculating 25 mL of fresh tryptic soy broth (TSB) with 200 μL of an overnight culture, were grown to log phase (OD600 = 0.3–0.6), after which cell counts were determined by measuring the OD600 (1.0 = 5 × 10^8 CFU/mL for E. coli, 4 × 10^8 CFU/mL for K. pneumoniae, 4 × 10^8 CFU/mL for P. aeruginosa, 1.5 × 10^8 CFU/mL for S. aureus). Bacterial cells were diluted to appropriate concentrations in TSB. We used the following clinical bacterial isolates of Klebsiella pneumoniae in this study: Strains KP6, KP46, NDM-1, KP396, and KP398 have been previously described.[43] ST58 strains C2, C3, and I2 are also described.[41] […] MRSA, […] S. aureus strain, is SAP400, a USA400 strain of community-acquired MRSA. […] The second independent set of K. pneumoniae isolates are previously described.[20],[21]
(§2) The antibiotics were serially diluted by a factor of 2:3 horizontally across 96-well plates from Corning, 25 μL per well. One column was reserved for controls. For the assays performed in the presence of RBC, type O+ human RBCs at 0 or 2.5 × 10^9 cells/mL were added in 50 μL aliquots to all wells. Following a 30-min incubation, 50 μL of TSB, inoculated with 5 × 10^5 CFU/mL, was added to all wells, and plates were incubated overnight at 37 °C. Following overnight incubation at 37 °C, the OD600 was measured (values of less than 0.1 were considered sterilized). To assess bacterial growth in the assays with RBC, the OD600 was measured after a second-day inoculation with 10 μL of solution from the original plate added to 100 μL of sterile TSB followed by overnight incubation.
(§3) Experiments were repeated four to eight times independently, with pairs of replicate measurements on each 96-well plate. After overnight growth, optical densities were measured at 660 nm and the sterilized wells were identified by having O.D. < 0.08. Nonsterilized wells were nearly opaque with OD > 0.6. For each measurement, we recorded the largest dilution that sterilized the bacteria. Statistics are done on dilution numbers, rather than calculated concentrations, because only the former have normal distributions.

[2] = test system: Pseudomonas aeruginosa clinical isolates; assay: microbe, parasite or virus in culture; details: clinical isolates
Procedure: as §1, §2, §3

[3] = test system: 14 clinical isolates of resistant bacterial strains; assay: Broth dilution, summary over the 14 clinical isolates of the first set; type: cell-based; details: 14 clinical isolates of the first set
Procedure: In Figure 4B, we plot the fraction of isolates sterilized as functions of antibiotic concentration.
as §1, §2

[4] = test system: K. pneumoniae clinical isolates
Procedure: as §1, §2, §3

[5] = test system: P. aeruginosa PAO1 (EYFP) pellicle biofilms; assay: Pellicle biofilm assay, viable cell enumeration; type: cell-based, Pseudomonas aeruginosa
Procedure: Here, we directly compare the antibiofilm activity of D-CONGA and D-CONGA-Q7 using a mature pellicle biofilm of P. aeruginosa.[22] […] To determine the susceptibility of pellicle biofilms to D-CONGA and D-CONGA-Q7, we cultured 2-day-old biofilms as described in the Methods section. The coverslip-adhered biofilms were exposed to challenge solution for 24 h prior to staining with SYTOX red and imaging with CLSM for EYFP, which indicates live cells, and for SYTOX Red which stains dead cells and extracellular DNA. […] The % cell survival was quantitated in two ways: (i) COMSTAT was used to compare biofilm biomass in CLSM images by estimating the biofilm biovolume, which is calculated as the overall volume/substratum area (μm^3/μm^2).[24],[25] […] (ii) The biofilms were dispersed mechanically for subsequent enumeration of viable cells such that % survival is expressed as the ratio (CFUuntreated biofilm/CFUtreated biofilm).
The susceptibility of biofilm-embedded P. aeruginosa cells to the antimicrobial peptides was studied as reported previously[23] using a P. aeruginosa PAO1 strain expressing enhanced yellow fluorescent protein (EYFP).[22] The EYFP-expressing P. aeruginosa strain was routinely grown in Pseudomonas Isolation (PI) media (20 g/L peptone, 0.3 g/L, MgCl2·6H2O, 10 g/L, K2SO4, 25 mg/L irgasan, and 20 mL/L glycerol, pH 7.0). […] Iron supplementation was carried out by addition of a small volume of filter-sterilized 10 mM (NH4)2Fe(SO4)2 (pH ∼ 2.0) solution.
In brief: Starter cultures (5 mL PI media supplemented with 10 μM Fe) were grown (14 h) from a single-colony shaking (220 rpm) at 37 °C. To grow the pellicle biofilms, starter cultures were diluted to OD600 = 0.001 in 4 mL of PI media supplemented with 20 μM Fe, placed in 35 × 10 mm Petri dishes, and incubated statically at 30 °C for 48 h. The pellicles were harvested using circular (1.5 cm diameter) glass coverslips by gently allowing the surface of a coverslip to contact the biofilm at the air–liquid interface. […]

luminescent MRSA = assay: Murine wound infection model, MRSA; type: in vivo, CD1 mice; details: 75 μg in 20 μL water with 0.025% acetic acid, topical, every 8 h for the first 5 days; luminescence (IVIS), Days 1–3; four animals per group
Procedure: (§4) Wound luminescence values were recorded once per day for each animal during the experiment using an IVIS whole animal imaging system. Total luminescence values, integrated over the entire wound area, were averaged for the four animals in each group. Treated versus control values were compared for each day using a two-sample t-test. Multiple comparisons were corrected using the method of Bonferroni.

[6] = test system: luminescent P. aeruginosa (PAO1); assay: Murine wound infection model, P. aeruginosa; type: in vivo, CD1 mice; details: 75 μg in 20 μL water with 0.025% acetic acid, topical, every 8 h for the first 5 days; luminescence (IVIS), Days 1–3; four animals per group
Procedure: as §4

MRSA wound biofilms = assay: SEM of Tegaderm wound dressing, MRSA; type: in vivo, CD1 mice; details: dressing removed on Day 3, treated three times a day
Text: (§5) The Tegaderm dressing used in the murine wound model is an excellent substrate for bacterial adhesion and biofilm formation.[5],[15] […] We imaged three to four randomly selected areas of each Tegaderm sample at two magnifications each. Each image is scored for the presence/absence of bacterial cells, either rod-shaped P. aeruginosa, ∼1 μm in diameter, or spherical MRSA cocci, ∼0.9 μm in diameter. Images are also scored for biofilm-like structures defined by having multiple bacteria embedded in an obvious three-dimensional matrix. These distinctions are shown by representative images of the fixed Tegaderm dressings in Figure 9A,B. In vehicle control samples, we observed that P. aeruginosa frequently forms an open, three-dimensional matrix in which many cells are entangled in μm-long fibers. We observed that MRSA also forms a matrix in which cells are close-packed in strands that comprise a large-scale mesh. Every SEM image (68/68) from vehicle control samples of the two bacteria contained obvious visible bacteria, and most of these images contained ≥50 individual cells. In samples from peptide-treated animals, 57 of 68 (84%) of images had no visible bacteria. […] We performed a statistical analysis of observed bacteria and biofilms using the binomial equation. P-values for all comparisons of treated vs vehicle were less than 0.001. […]

[7] = test system: P. aeruginosa and MRSA wound biofilms; assay: SEM of Tegaderm wound dressing, both bacteria pooled; type: in vivo, CD1 mice; details: 68 images from treated animals, Day 3 Tegaderm
Text: as §5

CC(C)C[C@@H](NC(=O)[C@@H](CCC(N)=O)NC(=O)[C@@H](CCCNC(=N)N)NC(=O)[C@@H](CCCNC(=N)N)NC(=O)[C@@H](C)NC(=O)[C@@H](Cc1c[nH]c2ccccc12)NC(=O)[C@@H](CCCNC(=N)N)NC(=O)[C@H](N)CCCNC(=N)N)C(=O)N[C@H](C)C(=O)N[C@H](Cc1ccccc1)C(=O)N[C@H](C)C(=O)N[C@H](Cc1ccccc1)C(=O)N[C@H](CCCNC(=N)N)C(=O)N[C@H](CCCNC(=N)N)C(N)=O [D-CONGA-Q7] (H-[dR][dR][dW][dA][dR][dR][dQ][dL][dA][dF][dA][dF][dR][dR]-NH2; N-terminus assumed)
MIC, MRSA USA400 [1]: 1.5 µM (≈ 2.83 µg/mL) | MIC, PA(mucoid) [2]: 4.2 µM (≈ 7.93 µg/mL) | MIC, PA(non-mucoid) [2]: 1.1 µM (≈ 2.08 µg/mL) | Fraction of clinical isolates sterilized at 2 μM ([3]; 2 μM): half | Fraction of clinical isolates sterilized at 5 μM ([3]; 5 μM): 12/14 | K. Pneumoniae Isolate MIC, 1000527 [4]: 6.8 µM | K. Pneumoniae Isolate MIC, 1002565 [4]: 5.1 µM | K. Pneumoniae Isolate MIC, 1100770 [4]: 5.1 µM | K. Pneumoniae Isolate MIC, 1100975 [4]: 3.4 µM | K. Pneumoniae Isolate MIC, ATCC 43816 [4]: 6.8 µM | K. Pneumoniae Isolate MIC, ATCC 700721 [4]: 6.8 µM | K. Pneumoniae Isolate MIC, K6 [4]: 3.4 µM | K. Pneumoniae Isolate MIC, K 6.1 [4]: 3.4 µM | K. Pneumoniae Isolate MIC, K 6.2 [4]: 5.1 µM | K. Pneumoniae Isolate MIC, KP 80 [4]: 3.4 µM | K. Pneumoniae Isolate MIC, KP NIH 1 [4]: 6.8 µM | K. Pneumoniae Isolate MIC, KP NIH 10 [4]: > 25 µM | K. Pneumoniae Isolate MIC, KP NIH 24 [4]: 6.8 µM | K. Pneumoniae Isolate MIC, KP NIH 27 [4]: 3.4 µM | K. Pneumoniae Isolate MIC, KP NIH 29 [4]: 2.5 µM | K. Pneumoniae Isolate MIC, KP NIH 30 [4]: 3.4 µM | K. Pneumoniae Isolate MIC, KP NIH 31 [4]: 3.4 µM | K. Pneumoniae Isolate MIC, KP NIH 32 [4]: 6.8 µM | K. Pneumoniae Isolate MIC, KP NIH 33 [4]: 1.3 µM | Reduction of biofilm CFU ([5]; 2 μM, 48 h pellicle biofilm, 24 h challenge, dispersing and counting viable cells): 70% | Reduction of viable biofilm bacteria ([5]; 8 μM peptide, 2-day-old pellicle biofilm, 24 h treatment in AB challenge media, 30 °C): ≥ 90% | Maximum reduction of MRSA burden (luminescent MRSA): ≥ 4 logs | Reduction of P. aeruginosa burden [6]: ~2 logs | MRSA: Bacteria Present (SEM images of Tegaderm) (MRSA wound biofilms; images with bacteria / all random images): 3/35 | MRSA: Biofilm present (SEM images of Tegaderm) (MRSA wound biofilms; images with biofilm / all random images): 0/35 | Biofilm observed in SEM images [7]: no biofilm was observed
